Read-outs that look alike come from different tables or passages of the source. Bounds are passed on as bounds.

This is an account of results in US20260258039A1, “AROMATIC COMPOUND, METHOD FOR PREPARING SAME, AND USE THEREOF IN PREPARATION OF ESTROGEN RECEPTOR DEGRADER” (Hinova Pharmaceuticals Inc., priority 2022, published 2026).

For this experiment, the target named is T1, ER (Homo sapiens, UniProt P03372).
T1 construct: T47D breast cancer cells were subcultured in cell culture medium; endogenous in cells; host or cells: T47D breast cancer cells
T1 sequence (P03372 1-595): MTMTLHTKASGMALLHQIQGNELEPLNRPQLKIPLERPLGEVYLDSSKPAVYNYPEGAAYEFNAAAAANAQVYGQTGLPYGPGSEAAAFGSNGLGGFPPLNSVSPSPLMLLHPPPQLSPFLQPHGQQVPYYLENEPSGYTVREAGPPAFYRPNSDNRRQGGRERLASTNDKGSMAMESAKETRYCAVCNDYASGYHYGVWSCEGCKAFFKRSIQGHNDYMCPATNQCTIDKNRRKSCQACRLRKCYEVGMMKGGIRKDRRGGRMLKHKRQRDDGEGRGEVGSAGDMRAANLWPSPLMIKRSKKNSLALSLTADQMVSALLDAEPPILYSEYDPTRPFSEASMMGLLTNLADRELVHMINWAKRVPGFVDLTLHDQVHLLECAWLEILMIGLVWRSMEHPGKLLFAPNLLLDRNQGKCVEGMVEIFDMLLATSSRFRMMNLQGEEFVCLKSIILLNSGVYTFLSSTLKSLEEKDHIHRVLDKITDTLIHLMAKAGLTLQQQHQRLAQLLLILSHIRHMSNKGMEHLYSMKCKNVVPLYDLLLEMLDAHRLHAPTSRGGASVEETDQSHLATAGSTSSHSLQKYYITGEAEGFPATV
Briefly: Degradation activities on ER (ELISA) in T47D breast cancer cells. It is filed as cell-based. The conditions noted are these: T47D cells, 24 h, ELISA; for DC50: concentration required to degrade 50% of the target protein; for Dmax: maximum percentage of target protein degraded. The procedure: T47D breast cancer cells were subcultured in cell culture medium, and then the cells in good growth condition were seeded into 96-well plates at 80 µL/well, with 2.5×10^4 cells per well. The cells were incubated in a 37° C., 5% CO2 incubator for 3 days. The drug was prepared into a 10 mM stock solution with dimethyl sulfoxide (DMSO). Prior to use, the stock solution was diluted with cell culture medium to obtain six final concentrations (100 nM, 25 nM, 6.25 nM, 1.56 nM, 0.39 nM, and […]), and gently mixed. Additionally, negative control wells (only containing culture medium) and positive control wells (only containing cells and DMSO) were included. After the cells were incubated in the incubator for 24 h, the cells were rinsed once with ice-cold 1×PBS. […] The plate was sealed with plastic film, and incubated in a 37° C. incubator for 2 h. The film was removed. 200 μL of 1× washing buffer was added to each well, and then the plate was shaken for 5 min. The washing buffer was discarded, and the plate was pat-dried. The plate was washed four times. 100 μL of freshly prepared detection antibody (green) was added to each well of the ELISA plate. The plate was sealed with plastic film, and then incubated in a 37° C. incubator for 1 h. The film was removed, and the detection antibody was discarded. The plate was pat-dried. 200 μL of 1× washing buffer was added to each well, and then the plate was shaken for 5 min. The washing buffer was discarded, and the plate was pat-dried. The plate was washed four times. 100 μL of freshly prepared HRP-labeled secondary antibody (red) was added to each well of the ELISA plate. The plate was sealed with plastic film, and incubated in a 37° C. incubator for 30 min. The film was removed, the secondary antibody was discarded, and the plate was pat-dried, followed by adding 200 μL of 1× washing buffer to each well. The plate was shaken for 5 min, and the washing buffer was discarded before pat-drying the plate. The plate was washed four times. 100 μl of TMB substrate was added to each well of the ELISA plate, followed by incubating in a 37° C. incubator for 5 min. 100 μL of STOP solution was added to each well of the ELISA plate, and the plate was gently shaken for a few seconds. The bottom of each well was wiped with lint-free cloth. Within 30 min after adding the STOP solution, the absorbance was read at 450 nm. […] The data were analyzed using the Dose-response equation in GraphPad Prism8 software to obtain the DC50 and Dmax values, and both of them are important indicators for measuring the degradation activities of compounds on target proteins. […] The Dmax value represents the maximum percentage of target protein that can be degraded by the compound.
(In an ELISA, binding on a coated surface is turned into a signal by an enzyme label.)

The term DC50 denotes the midpoint of the concentration-degradation curve. Read a high DC50 as degradation only at high concentration. In general, Dmax refers to the greatest extent of degradation seen. In turn, `O=C1CCC(N2Cc3cc(N4CC5(CCN(CC6CCN(c7ccc([C@H]8c9ccc(O)cc9OC[C@H]8c8c(F)cccc8F)cc7F)CC6)CC5)C4)ccc3C2=O)C(=O)N1` (stereo partly drawn) [Example 71, 3-(5-(7-((1-(4-((3R,4S)-3-(2,6-difluorophenyl)-7-hydroxychroman-4-yl)-2-fluorophenyl)piperidin-4-yl)methyl)-2,7-diazaspiro[3.5]nonane-2-yl)-1-oxoisoinodolin-2-yl)piperidin-2,6-dione] gave a DC50 of over 100 nM. The maximal degradation (Dmax) (read-out: Dmax) was under 50%.
In turn, `O=C1CCC(N2Cc3cc(N4CC5(CCN(CC6CCN(c7c(F)cc(C8=C(c9c(F)cccc9F)COc9cc(OCc%10ccccc%10)ccc98)cc7F)CC6)CC5)C4)ccc3C2=O)C(=O)N1` (stereo not drawn) [Example 43] yielded a DC50 of over 100 nM. In addition, the maximal degradation (Dmax) (read-out: Dmax) was under 50%.
The compound `O=C1CCC(N2Cc3cc(N4CC5(CCN(CC6CCN(c7ccc([C@@H]8c9ccc(O)cc9OC[C@@H]8c8ccc(F)cc8F)cc7)CC6)CC5)C4)ccc3C2=O)C(=O)N1` (stereo partly drawn) [Example 46, 3-(5-(7-((1-(4-(cis-3-(2,4-difluorophenyl)-7-hydroxychroman-4-yl)phenyl)piperidin-4-yl)methyl)-2,7-diazaspiro[3.5]nonane-2-yl)-1-oxoisoinodolin-2-yl)piperidin-2,6-dione] came in with a DC50 of 10 to 50 nM. Also, the Dmax (read-out: Dmax) fell in the range of 50 to 75%.
Compound `O=C1CCC(N2Cc3cc(N4CC5(CCN(CC6CCN(c7c(F)cc([C@@H]8c9ccc(O)cc9OC[C@@H]8c8cccc(F)c8F)cc7F)CC6)CC5)C4)ccc3C2=O)C(=O)N1` (stereo partly drawn) [Example 48, 3-(5-(7-((1-(2,6-difluoro-4-(cis-3-(2,3-difluorophenyl)-7-hydroxychroman-4-yl)phenyl)piperidin-4-yl)methyl)-2,7-diazaspiro[3.5]nonane-2-yl)-1-oxoisoinodolin-2-yl)piperidin-2,6-dione] showed a DC50 of under 10 nM. The Dmax (read-out: Dmax) was 50 to 75%.
Turning to `O=C1CCC(N2Cc3cc(N4CCC(N5CC6(CCN(c7ccc([C@H]8c9ccc(O)cc9OC[C@H]8c8ccccc8F)cc7)CC6)C5)CC4)ccc3C2=O)C(=O)N1` (stereo partly drawn) [Example 15], the DC50 was over 100 nM. Moreover, the Dmax (read-out: Dmax) is under 50%.
On the same counts, the results for `Cc1ccccc1[C@H]1COc2cc(O)ccc2[C@H]1c1ccc(N2CCC(CN3CCC4(CC3)CN(c3ccc5c(c3)CN(C3CCC(=O)NC3=O)C5=O)C4)CC2)cc1` (stereo partly drawn) [Example 35, 3-(5-(7-((1-(4-(cis-7-hydroxyl-3-(o-methylphenyl)chroman-4-yl)phenyl)piperidin-4-yl)methyl)-2,7-diazaspiro[3.5]nonane-2-yl)-1-oxoisoinodolin-2-yl)piperidin-2,6-dione] are 10 to 50 nM and 50 to 75%.
On to `O=C1CCC(N2Cc3cc(N4CC5(CCN(CC6CCN(c7ccc([C@H]8c9ccc(O)cc9OC[C@H]8c8c(F)cccc8F)cc7)CC6)CC5)C4)ccc3C2=O)C(=O)N1` (stereo partly drawn) [Example 72, 3-(5-(7-((1-(4-((3R,4S)-3-(2,6-difluorophenyl)-7-hydroxychroman-4-yl)phenyl)piperidin-4-yl)methyl)-2,7-diazaspiro[3.5]nonane-2-yl)-1-oxoisoindol-2-yl)piperidin-2,6-dione], for which the maximal degradation (Dmax) (read-out: Dmax) is under 50%.
`O=C1CCC(N2C(=O)c3ccc(N4CC5(CN(CC6CCN(c7ccc([C@@H]8c9ccc(O)cc9CC[C@@H]8c8ccccc8)cc7)CC6)C5)C4)cc3C2=O)C(=O)N1` (stereo partly drawn) [Example 3, 2-(2,6-dioxopiperidin-3-yl)-5-(6-((1-(4-((1R,2S)-6-hydroxyl-2-phenyl-1,2,3,4-tetrahydronaphthalen-1-yl)phenyl)piperidin-4-yl)methyl)-2,6-diazaspiro[3.3]heptan-2-yl)isoinodolin-1,3-dione] yielded a DC50 of over 100 nM.
With `O=C1CCC(N2Cc3cc(N4CCC5(CCN(C6CCN(c7ccc([C@@H]8c9ccc(O)cc9CC[C@@H]8c8ccccc8)cc7)CC6)C5)C4)ccc3C2=O)C(=O)N1` (stereo partly drawn) [Example 66, 3-(5-(7-(1-(4-(6-hydroxyl-2-phenyl-1,2,3,4-tetrahydronaphthalen-1-yl)phenyl)piperidin-4-yl)-2,7-diazaspiro[4.4]nonane-2-yl)-1-oxoisoinodolin-2-yl)piperidin-2,6-dione], the DC50 is over 100 nM. In addition, the Dmax (read-out: Dmax) was under 50%.
The matching figures for `O=C1CCC(N2Cc3cc(N4CC5(CCN(CC6CCN(c7c(F)cc([C@H]8c9ccc(O)cc9OC[C@H]8c8ccccc8F)cc7F)CC6)CC5)C4)ccc3C2=O)C(=O)N1` (stereo partly drawn) [Example 38, 3-(5-(7-((1-(2,6-difluoro-4-((3R,4S)-3-(2-fluorophenyl)-7-hydroxychroman-4-yl)phenyl)piperidin-4-yl)methyl)-2,7-diazaspiro[3.5]nonane-2-yl)-1-oxoisoindol-2-yl)piperidin-2,6-dione]: over 100 nM and under 50%.
Take `O=C1CCC(N2Cc3cc(N4CC5(CCN(CC6CCN(c7ccc([C@@H]8c9ccc(O)cc9OC[C@@H]8c8c(F)cccc8F)cc7)CC6)CC5)C4)ccc3C2=O)C(=O)N1` (stereo partly drawn) [Example 77, 3-(5-(7-((1-(4-((3S,4R)-3-(2,6-difluorophenyl)-7-hydroxychroman-4-yl)phenyl)piperidin-4-yl)methyl)-2,7-diazaspiro[3.5]nonane-2-yl)-1-oxoisoinodolin-2-yl)piperidin-2,6-dione]: the Dmax entry is reported as “B (B: 75-50%)”.
Take `O=C1CCC(N2Cc3cc(N4CCC(N5CC6(CCN(c7ccc([C@@H]8c9ccc(O)cc9OC[C@@H]8c8ccccc8F)cc7F)CC6)C5)CC4)ccc3C2=O)C(=O)N1` (stereo partly drawn) [Example 68, 3-(5-(4-(7-(2-fluoro-4-((3,4-cis)-3-(2-fluorophenyl)-7-hydroxyl-chroman-4-yl)phenyl)-2,7-diazaspiro[3.5]nonane-2-yl)piperidin-1-yl)-1-oxoisoinodolin-2-yl)pyridine-2,6-dione]: the DC50 is under 10 nM. Further, the greatest degradation seen (Dmax) (read-out: Dmax) was over 75%.
Compound `O=C1CCC(N2Cc3cc(N4CCC(N5CC6(CCN(c7ccc([C@@H]8c9ccc(O)cc9OC[C@@H]8c8ccccc8)cc7F)CC6)C5)CC4)ccc3C2=O)C(=O)N1` (stereo partly drawn) [Example 23, 3-(5-(4-(7-(4-(cis-3-(2-fluorophenyl)-7-hydroxychroman-4-yl)phenyl)-2,7-diazaspiro[3.5]nonane-2-yl)piperidin-1-yl)-1-oxoisoinodolin-2-yl)piperidin-2,6-dione] yielded a DC50 of 10 to 50 nM. For the same compound, the Dmax (read-out: Dmax) was over 75%.
The compound `O=C1CC[C@@H](N2Cc3cc(N4CC5(CCN(CC6CCN(c7ccc([C@@H]8c9ccc(O)cc9OC[C@@H]8c8ccccc8F)cc7)CC6)CC5)C4)ccc3C2=O)C(=O)N1` [Example 90, (R)-3-(5-(7-((1-(4-((3S, 4R)-3-(2-fluorophenyl)-7-hydroxychroman-4-yl)phenyl)piperidin-4-yl)methyl)-2,7-diazaspiro[3.5]nonane-2-yl)-1-oxoisoinodolin-2-yl)piperidin-2,6-dione] returned a DC50 of over 100 nM. Also, the Dmax (read-out: Dmax) was under 50%.
On the same counts, the results for `O=C1CCC(N2Cc3cc(N4CC5(CCN(CC6CCN(c7c(F)cc([C@H]8c9ccc(O)cc9OC[C@H]8c8cccc(F)c8F)cc7F)CC6)CC5)C4)ccc3C2=O)C(=O)N1` (stereo partly drawn) [Example 39, 3-(5-(7-((1-(4-((3R,4S)-3-(2,3-difluorophenyl)-7-hydroxychroman-4-yl)-2,6-difluorophenyl)piperidin-4-yl)methyl)-2,7-diazaspiro[3.5]nonane-2-yl)-1-oxoisoinodolin-2-yl)piperidin-2,6-one] are over 100 nM and under 50%.
